Assay results: article PMC3726451, “Coumestrol from the national cancer Institute’s natural product library is a novel inhibitor of protein kinase CK2” (BMC Pharmacology & Toxicology, 2013)

Tests used:
Casein kinase 2 (CK2) = molecular target: T1, Casein kinase 2 (CK2) (Homo sapiens, UniProt P68400); test: ADP-Glo kinase assay, single concentration […], duplicates; type: biochemical; conditions: read-out: % inhibition at 10 μM
T1 construct: gene CSNK2A1

[1] = molecular target: T2, vascular endothelial growth factor receptor 3 (VEGFR3) (Homo sapiens, UniProt P35916); test: ADP-Glo kinase selectivity panel, single concentration […] with […] ATP; type: biochemical
T2 construct: gene FLT4
T2 sequence (P35916 25-1363): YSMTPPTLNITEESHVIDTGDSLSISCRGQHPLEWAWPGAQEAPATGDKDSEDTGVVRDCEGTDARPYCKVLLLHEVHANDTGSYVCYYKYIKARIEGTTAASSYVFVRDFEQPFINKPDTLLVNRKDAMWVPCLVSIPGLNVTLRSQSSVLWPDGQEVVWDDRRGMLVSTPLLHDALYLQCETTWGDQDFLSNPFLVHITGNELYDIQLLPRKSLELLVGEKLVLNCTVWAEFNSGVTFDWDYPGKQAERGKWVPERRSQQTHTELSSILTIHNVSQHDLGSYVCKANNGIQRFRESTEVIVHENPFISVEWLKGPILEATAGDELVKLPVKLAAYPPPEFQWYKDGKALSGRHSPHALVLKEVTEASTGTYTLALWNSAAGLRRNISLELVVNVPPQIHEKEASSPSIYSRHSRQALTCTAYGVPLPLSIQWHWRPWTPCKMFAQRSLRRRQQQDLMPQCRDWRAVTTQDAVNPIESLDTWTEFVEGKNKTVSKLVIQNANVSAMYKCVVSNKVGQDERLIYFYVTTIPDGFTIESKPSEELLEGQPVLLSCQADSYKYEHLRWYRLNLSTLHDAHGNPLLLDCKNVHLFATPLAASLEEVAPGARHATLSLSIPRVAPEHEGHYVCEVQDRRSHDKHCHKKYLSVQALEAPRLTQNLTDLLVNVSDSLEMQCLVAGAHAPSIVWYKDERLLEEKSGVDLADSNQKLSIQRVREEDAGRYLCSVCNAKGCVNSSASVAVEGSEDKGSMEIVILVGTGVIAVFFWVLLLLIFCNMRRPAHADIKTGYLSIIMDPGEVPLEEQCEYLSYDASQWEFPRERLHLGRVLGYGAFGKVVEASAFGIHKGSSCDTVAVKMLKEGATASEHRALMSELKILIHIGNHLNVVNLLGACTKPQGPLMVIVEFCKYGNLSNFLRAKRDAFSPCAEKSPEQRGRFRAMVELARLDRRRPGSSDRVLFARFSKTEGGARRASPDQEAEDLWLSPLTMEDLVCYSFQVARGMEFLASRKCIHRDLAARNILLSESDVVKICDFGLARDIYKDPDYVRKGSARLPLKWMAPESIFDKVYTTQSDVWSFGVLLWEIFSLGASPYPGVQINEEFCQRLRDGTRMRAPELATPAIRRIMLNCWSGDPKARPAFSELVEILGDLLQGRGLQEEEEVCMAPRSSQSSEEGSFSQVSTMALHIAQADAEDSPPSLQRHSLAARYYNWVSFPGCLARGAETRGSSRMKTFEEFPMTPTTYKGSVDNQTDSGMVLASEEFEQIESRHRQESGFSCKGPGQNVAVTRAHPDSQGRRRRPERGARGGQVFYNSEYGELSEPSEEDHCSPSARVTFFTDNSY

T1 sequence (P68400 whole entry): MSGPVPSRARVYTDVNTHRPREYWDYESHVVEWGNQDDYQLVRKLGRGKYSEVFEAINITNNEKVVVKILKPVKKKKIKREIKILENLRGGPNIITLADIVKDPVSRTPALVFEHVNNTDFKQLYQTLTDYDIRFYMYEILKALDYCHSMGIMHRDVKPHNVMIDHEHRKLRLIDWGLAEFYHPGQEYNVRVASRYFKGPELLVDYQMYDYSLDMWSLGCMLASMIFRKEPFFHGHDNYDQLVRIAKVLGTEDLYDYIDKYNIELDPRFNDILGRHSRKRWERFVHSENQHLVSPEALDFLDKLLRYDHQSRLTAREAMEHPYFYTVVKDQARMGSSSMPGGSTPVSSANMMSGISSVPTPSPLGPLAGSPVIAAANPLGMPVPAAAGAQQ
T1 sequence (P67870 2-215 partner): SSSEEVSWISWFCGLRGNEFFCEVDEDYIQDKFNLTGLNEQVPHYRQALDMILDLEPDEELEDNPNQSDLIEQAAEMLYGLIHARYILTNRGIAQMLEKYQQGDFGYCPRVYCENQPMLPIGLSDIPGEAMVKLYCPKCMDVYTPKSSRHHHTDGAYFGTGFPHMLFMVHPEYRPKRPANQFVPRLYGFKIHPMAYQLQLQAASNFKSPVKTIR

| inhibition at 10 µM [1] [%] | SMILES | inhibition at 10 µM (Casein kinase 2 (CK2)) [%] |
| --- | --- | --- |
| – | COc1cccc2c1cc([N+](=O)[O-])c1c(C(=O)O)cc3c(c12)OCO3 [1-F3, 8-methoxy-6-nitro phenanthro[3,4-d] [1, 3] dioxole-5-carboxylic acid] | > 50 |
| – | COc1cc(/C=C/C(=O)CC(=O)/C=C/c2ccc(O)c(OC)c2)ccc1O [1-D6, (1E,6E)-1,7-Bis(4-hydroxy-3-methoxyphenyl)-1,6-heptadiene-3,5-dione] | > 50 |
| 59 | O=c1oc2cc(O)ccc2c2oc3cc(O)ccc3c12 [1-F4, 3,9-Dihydroxy-6-benzofurano [3,2-c]chromenone] | – |
